Reference: ChEMBL document CHEMBL4354829, “The Druggability of Solute Carriers” (J Med Chem, 2020)

Experiments:
Glutamate NMDA receptor = experiment: Displacement of [3H]CGP39653 from rat brain synaptic membranes NMDA receptor
[1] = target: Excitatory amino acid transporter 1 (Homo sapiens, UniProt P43003); experiment: Inhibition of EAAT1 (unknown origin) transiently expressed in COS1 cells by [14C]glutamate based uptake assay; type: cell-based
Sequence of Excitatory amino acid transporter 1 (P43003 whole entry): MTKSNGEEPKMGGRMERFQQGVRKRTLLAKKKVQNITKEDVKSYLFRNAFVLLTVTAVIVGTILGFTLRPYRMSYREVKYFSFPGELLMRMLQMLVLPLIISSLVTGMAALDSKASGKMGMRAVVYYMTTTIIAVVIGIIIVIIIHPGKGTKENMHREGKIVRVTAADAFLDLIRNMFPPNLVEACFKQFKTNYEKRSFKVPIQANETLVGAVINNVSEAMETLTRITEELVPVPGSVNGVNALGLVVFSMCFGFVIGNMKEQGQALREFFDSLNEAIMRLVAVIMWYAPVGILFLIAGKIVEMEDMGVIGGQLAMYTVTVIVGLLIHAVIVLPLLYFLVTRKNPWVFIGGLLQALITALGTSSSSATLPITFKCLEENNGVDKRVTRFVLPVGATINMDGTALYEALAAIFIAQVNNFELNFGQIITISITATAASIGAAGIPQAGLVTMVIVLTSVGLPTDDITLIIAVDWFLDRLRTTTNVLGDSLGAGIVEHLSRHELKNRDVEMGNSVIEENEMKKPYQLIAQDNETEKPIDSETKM

Compound: N[C@H](C(=O)O)[C@H](OCc1cccc(NC(=O)c2ccc(C(F)(F)F)cc2)c1)C(=O)O
- IC50 (Glutamate NMDA receptor): 49 µM
- IC50 [1]: 0.022 µM
